For series [1], the target named is T1, human H1 receptor (Homo sapiens, UniProt P35367).
T1 construct: expressed in transfected cells
As to the kind of experiment: Histamine H1 functional antagonist assay (FLIPR): determination of antagonist pA2. In kind it is cell-based. How it is done: (§1) The human H1 receptor is cloned using known procedures described in the literature [Biochem. Biophys. Res. Commun., 201(2):894 (1994)]. Chinese hamster ovary (CHO) cells stably expressing the human H1 receptor are generated according to known procedures described in the literature [Br. J. Pharmacol., 117(6):1071 (1996)].
(§2) Histamine H1 functional antagonist assay: Determination of antagonist pA2 and duration
The histamine H1 receptor expressing CHO cells are seeded into non-coated black-walled clear bottom 96-well tissue culture plates as described above. Following overnight culture, growth medium is removed from each well, washed with 200 μl phosphate buffered saline (PBS) and is replaced with 50 μl loading dye (250 μM Brilliant Black, 1 μM Fluo-4 diluted in Tyrodes buffer+probenecid (145 mM NaCl, 2.5 mM KCl, 10 mM HEPES, 10 mM D-glucose, 1.2 mM MgCl2, 1.5 mM CaCl2, 2.5 mM probenecid, pH adjusted to 7.40 with NaOH 1.0 M)). Cells are incubated for 45 min at 37° C. The loading buffer is removed and the cells are washed as above, and 90 μl of Tyrodes buffer+probenecid is added to each well. 10 μl of test compound, diluted to the required concentration in Tyrodes buffer+probenecid (or 10 μl Tyrodes buffer+probenecid as a control) is added to each well and the plate is incubated for 30 min at 37° C., 5% CO2. The plates are then placed into a FLIPR™ (Molecular Devices, UK) to monitor cell fluorescence (λex=488 nm, λEM=540 nm) in the manner described in Sullivan et al., (In: Lambert DG (ed.), Calcium Signaling Protocols, New Jersey: Humana Press, 1999, 125-136) before and after the addition of 50 μl histamine over a concentration range of 1 mM-0.1 nM. The resultant concentration response curves are analysed by non-linear regression using a standard four parameter logistic equation to determine the histamine EC50, the concentration of histamine required to produce a response of 50% of the maximum response to histamine. The antagonist pA2 is calculated using the following standard equation: pA2=log(DR-1)- log[B] where DR=dose ratio, defined as EC50antagonist-treated/EC50control and [B]=concentration of antagonist.

The nature of series [2]: CNS penetration (intravenous bolus or infusion at steady state, blood and brain levels). In kind it is in vivo, rat. As to conditions: male CD Sprague Dawley rats. As to the method:
(i) CNS penetration by bolus administration
Compounds are dosed intravenously at a nominal dose level of 1 mg/kg to male CD Sprague Dawley rats. Compounds are formulated in 5% DMSO/45% PEG200/50% water. Blood samples are taken under terminal anaesthesia with isoflurane at 5 min post-dose and the brains are also removed for assessment of brain penetration. Blood samples are taken directly into heparinised tubes. Blood samples are prepared for analysis using protein precipitation and brain samples are prepared using extraction of drug from brain by homogenisation and subsequent protein precipitation. The concentration of parent drug in blood and brain extracts is determined by quantitative LC-MS/MS analysis using compound-specific mass transitions.
(ii) CNS penetration following intravenous infusion at steady state
A loading dose of the compounds is given to male CD Sprague Dawley rats at a nominal dose level of 0.4 mg/kg. The compounds are then infused intravenously for 4 h at a nominal dose level of 0.1 mg/kg/h. Compounds are formulated in 2% DMSO/30% PEG200/68% water. Serial or terminal blood samples are taken at 0.5, 1.5, 2.5, 3, 3.5 and 4 h post dose. The final blood sample is collected under terminal anaesthesia with isoflurane and the brains are also removed for assessment of brain penetration. Blood samples are taken directly into heparinised tubes. Blood samples are prepared for analysis using protein precipitation and brain samples are prepared using extraction of drug from brain by homogenisation and subsequent protein precipitation. The concentration of parent drug in blood and brain extracts is determined by quantitative LC-MS/MS analysis using compound-specific mass transitions.

Series [3] concerns the target T1, human H1 receptor. As to the kind of experiment: Histamine H1 functional antagonist assay (FLIPR): determination of functional pKi values. The format is cell-based. As to conditions: CHO cells expressing human H1, histamine at EC80; read-out: average pKi (pKb) at H1 (converted).
From the text: H1 receptor cell line generation and FLIPR assay protocol
1. Generation of histamine H1 cell line
as §1
Histamine H1 functional antagonist assay: Determination of functional pKi values […]
10 μl of test compound, diluted to the required concentration in Tyrodes buffer+probenecid (or 10 μl Tyrodes buffer+probenecid as a control) is added to each well and the plate is incubated for 30 min at 37° C., 5% CO2. The plates are then placed into a FLIPR™ (Molecular Devices, UK) to monitor cell fluorescence (λex=488 nm, αEM=540 nm) in the manner described in Sullivan et al., (In: Lambert DG (ed.), Calcium Signaling Protocols, New Jersey: Humana Press, 1999, 125-136) before and after the addition of 10 μl histamine at a concentration that results in the final assay concentration of histamine being EC80.
Functional antagonism is indicated by a suppression of histamine induced increase in fluorescence, as measured by the FLIPR™ system (Molecular Devices). By means of concentration effect curves, functional affinities are determined using standard pharmacological mathematical analysis.

Series [4] has as its target T1, human H1 receptor. The series is described as follows: Histamine H1 functional antagonist assay: antagonist duration after washout. In kind it is cell-based. Particulars: at one or more time points. As to the method:
as §1, §2
To determine the antagonist duration, cells are cultured overnight in non-coated black-walled clear bottom 96-well tissue culture plates, are washed with PBS and are incubated with a concentration of antagonist chosen to give an approximate DR in the range 30-300. Following the 30 min antagonist incubation period, the cells are washed two or three times with 200 μl of PBS and then 100 μl Tyrodes buffer is added to each well to initiate antagonist dissociation. Following incubation for predetermined times, typically 30-270 min at 37° C., the cells are then washed again with 200 μl PBS and are incubated with 100 μl Tyrodes buffer containing Brilliant Black, probenecid and Fluo-4 for 45 min at 37° C., as described above. After this period, the cells are challenged with histamine in the FLIPR™ as described above. The dose ratio at each time point is used to determine the fractional H1 receptor occupancy by the following equation: fractional receptor occupancy=(DR-1)/DR. The decrease in receptor occupancy over time approximates to a straight line and is analysed by linear regression. The slope of this straight line fit is used as an index of the dissociation rate of the antagonist. The dose ratios for antagonist treated cells and for antagonist treated and washed cells at each time point are used to calculate a relative dose ratio (rel DR) which is also used as an index of antagonist duration. Antagonists with long duration of action produce rel DR values close to 1, and antagonists with short duration of action produce rel DR values that approaches the dose ratio value obtained for antagonist treatment alone.

Setting [5] is: CHO cells expressing human H1, histamine concentration response curves, read-out: average pA2 values at H1 (converted).

Structures can show the parent of a compound that is named as a salt. Where two headings read alike, the source gives them in different places.

T1 sequence (P35367 whole entry): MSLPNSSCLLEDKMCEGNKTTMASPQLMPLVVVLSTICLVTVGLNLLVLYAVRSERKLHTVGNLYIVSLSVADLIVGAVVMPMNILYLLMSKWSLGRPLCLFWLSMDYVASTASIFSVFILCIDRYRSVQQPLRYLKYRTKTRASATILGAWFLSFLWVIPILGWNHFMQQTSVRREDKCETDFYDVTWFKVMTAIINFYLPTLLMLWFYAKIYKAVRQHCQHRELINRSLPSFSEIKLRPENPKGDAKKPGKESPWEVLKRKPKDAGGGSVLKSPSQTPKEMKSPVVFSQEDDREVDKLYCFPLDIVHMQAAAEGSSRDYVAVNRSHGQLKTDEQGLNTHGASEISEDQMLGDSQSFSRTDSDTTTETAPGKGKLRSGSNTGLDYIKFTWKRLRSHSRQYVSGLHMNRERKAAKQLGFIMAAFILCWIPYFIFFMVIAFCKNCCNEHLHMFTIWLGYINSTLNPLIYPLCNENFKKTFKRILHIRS

For the compound `CN(CCCCc1ccc(OCCCN2CCCCCC2)cc1)CCn1nc(Cc2ccc(Cl)cc2)c2ccccc2c1=O` [Example 3, 4-[(4-Chlorophenyl)methyl]-2-{2-[[4-(4-{[3-(hexahydro-1H-azepin-1-yl)propyl]oxy}phenyl)butyl](methyl)amino]ethyl}-1(2H)-phthalazinone], the Kb at human H1 receptor [1] (setting [5]) is < 0.01 µM.
Take `O=c1c2ccccc2c(Cc2ccc(Cl)cc2)nn1C[C@H]1CCCN1CCCCCc1ccc(OCCCN2CCCCCC2)cc1` [Example 6, 4-[(4-Chlorophenyl)methyl]-2-({(2R)-1-[5-(4-{[3-(hexahydro-1H-azepin-1-yl)propyl]oxy}phenyl)pentyl]-2-pyrrolidinyl}methyl)-1(2H)-phthalazinone]: the Kb at human H1 receptor [1] (setting [5]) is < 0.001 µM.
As for `COc1ccc(Cc2nn(C[C@H]3CCCN3CCCCc3ccc(OCCCN4CCCCCC4)cc3)c(=O)c3ccccc23)cc1` [Example 7, 2-({(2R)-1-[4-(4-{[3-(Hexahydro-1H-azepin-1-yl)propyl]oxy}phenyl)butyl]-2-pyrrolidinyl}methyl)-4-{[4-(methyloxy)phenyl]methyl}-1(2H)-phthalazinone diformate], in series [2], the “CNS penetration compared with azelastine” value is “lower CNS penetration than azelastine”. Also, on human H1 receptor [1], the Kb is < 0.001 µM. In addition, the Ki on human H1 receptor [3] is < 0.01 µM. In addition, the “duration of action compared with azelastine in the histamine H1 functional antagonist assay” value at human H1 receptor [4] was “longer duration of action than azelastine”.
For the compound `O=c1c2ccccc2c(Cc2ccc(O)cc2)nn1C[C@H]1CCCN1CCCCc1ccc(OCCCN2CCCCCC2)cc1` [Example 8, 2-({(2R)-1-[4-(4-{[3-(Hexahydro-1H-azepin-1-yl)propyl]oxy}phenyl)butyl]-2-pyrrolidinyl}methyl)-4-[(4-hydroxyphenyl)methyl]-1(2H)-phthalazinone], the Kb at human H1 receptor [1] (setting [5]) was < 0.01 µM. In addition, the “duration of action compared with azelastine in the histamine H1 functional antagonist assay” value on human H1 receptor [4] is “longer duration of action than azelastine”.
For `O=c1c2ccccc2c(Cc2ccc(F)cc2)nn1C[C@H]1CCCN1CCCCc1ccc(OCCCN2CCCCCC2)cc1` [Example 9, 4-[(4-Fluorophenyl)methyl]-2-({(2R)-1-[4-(4-{[3-(hexahydro-1H-azepin-1-yl)propyl]oxy}phenyl)butyl]-2-pyrrolidinyl}methyl)-1(2H)-phthalazinone], in that order: < 0.001 µM and “longer duration of action than azelastine”.
In the case of `O=c1c2ccccc2c(Cc2ccc(Cl)cc2)nn1C1CCCN(CCc2ccc(OCCCN3CCCCCC3)cc2)CC1` (stereo not shown) [Example 11, 4-[(4-Chlorophenyl)methyl]-2-{1-[2-(4-{[3-(hexahydro-1H-azepin-1-yl)propyl]oxy}phenyl)ethyl]hexahydro-1H-azepin-4-yl}-1(2H)-phthalazinone], the Kb on human H1 receptor [1] (setting [5]) is < 0.01 µM.
Still for that read-out and setting: to `O=c1c2ccccc2c(Cc2ccc(Cl)cc2)nn1C1CCCN(CCCc2ccc(OCCCN3CCCCCC3)cc2)CC1` (stereo not shown) [Example 12, 4-[(4-Chlorophenyl)methyl]-2-{1-[3-(4-{[3-(hexahydro-1H-azepin-1-yl)propyl]oxy}phenyl)propyl]hexahydro-1H-azepin-4-yl}-1(2H)-phthalazinone] belongs < 0.01 µM.
Regarding `O=c1c2ccccc2c(Cc2ccc(Cl)cc2)nn1C[C@H]1CCCN1CCCOc1ccc2c(c1)CCN(C1CCC1)CC2` [Example 15, 4-[(4-Chlorophenyl)methyl]-2-[((2R)-1-{3-[(3-cyclobutyl-2,3,4,5-tetrahydro-1H-3-benzazepin-7-yl)oxy]propyl}-2-pyrrolidinyl)methyl]-1(2H)-phthalazinone], the Kb on human H1 receptor [1] (setting [5]) was < 0.01 µM. In addition, the “duration of action compared with azelastine in the histamine H1 functional antagonist assay” value on human H1 receptor [4] is “longer duration of action than azelastine”.
For the compound `O=c1c2ccccc2c(Cc2ccc(Cl)cc2)nn1C1CCCN(CCCOc2ccc3c(c2)CCN(C2CCC2)CC3)CC1` (stereo not shown) [Example 16, 4-[(4-Chlorophenyl)methyl]-2-(1-{3-[(3-cyclobutyl-2,3,4,5-tetrahydro-1H-3-benzazepin-7-yl)oxy]propyl}hexahydro-1H-azepin-4-yl)-1(2H)-phthalazinone formate salt], the “CNS penetration compared with azelastine” value in series [2] is recorded as “comparable CNS penetration to azelastine”.
Regarding `O=C(NCCN1CCCC(n2nc(Cc3ccc(Cl)cc3)c3ccccc3c2=O)CC1)c1ccc2c(c1)CCN(C1CCC1)CC2` (stereo not shown) [Example 18, N-(2-{4-[4-[(4-Chlorophenyl)methyl]-1-oxo-2(1H)-phthalazinyl]hexahydro-1H-azepin-1-yl}ethyl)-3-cyclobutyl-2,3,4,5-tetrahydro-1H-3-benzazepine-7-carboxamide diformate salt], the Kb on human H1 receptor [1] is < 0.01 µM. The “duration of action compared with azelastine in the histamine H1 functional antagonist assay” value on human H1 receptor [4] is reported as “longer duration of action than azelastine”.
For `O=c1c2ccncc2c(Cc2ccc(Cl)cc2)nn1C[C@H]1CCCN1CCCCc1ccc(OCCCN2CCCCCC2)cc1` [Example 23, 4-[(4-Chlorophenyl)methyl]-2-({(2R)-1-[4-(4-{[3-(hexahydro-1H-azepin-1-yl)propyl]oxy}phenyl)butyl]-2-pyrrolidinyl}methyl)pyrido[3,4-d]pyridazin-1(2H)-one], in that order: < 0.001 µM and “longer duration of action than azelastine”.

For the origin of these results see US20080039444A1, “COMPOUNDS” (GLAXO GROUP LIMITED, priority 2006, published 2008).
